Source: US12637473B2, “MDM2 protein degraders” (THE REGENTS OF THE UNIVERSITY OF MICHIGAN, priority 2016, dated 2026)
pIC50: −log10 of the molar value. Entries after “also recorded” stand apart in the source; their conditions may differ.

Tests used:
Type in all cases: cell-based
MV4-11 cell line = assay: CellTiter-Glo Luminescent Cell Viability Assay, cell growth inhibition; conditions: Homo sapiens, 96 h, 4 days
Outline: (§1)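 Cells plated at 2,000/well with serially diluted compounds, incubated 4 days at 37° C, 5% CO2. Viability read by CellTiter-Glo luminescence after 10-20 min at room temperature; IC50 from dose-response fit.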

RS4; 11 cell line = assay: as above; conditions: Homo sapiens, 96 h, 4 days
Outline: as §1

[1] = tested on: p53 target genes: p21, PUMA and BAX; assay: Activation of p53 downstream target genes, quantitative real-time PCR; conditions: RS4, 11 cells; for activation of p53 downstream target genes (mRNA levels of p21, PUMA, BAX): 3, 6, or 12 hours
Experimental: RS4; 11 cells were treated with Cpd. A (0.3 μM), Cpd. No. 15 (10 nM), and Cpd. No. 22 (10 nM) for 3, 6, or 12 hours, and then harvested and washed. Cellular mRNA samples were extracted from the cells and then subjected to Reverse Transcription and quantitative real-time PCR for the analysis of the mRNA levels of three representative p53 target genes: p21, that induces cell cycle arrest, and PUMA and BAX that leads to apoptosis. […] A, Cpd. No. 15, and Cpd. No. 22.

[2] = tested on: RS4; 11 cells with stable shRNA knockdown of p53; assay: Cell growth inhibition by WST assay, p53 knockdown cells; parameters: LogIC50: unit not given here; conditions: RS4;11 sh p53, 4 days; for pIC50: Homo sapiens, 96 h
Experimental: (§2) RS4; 11 cells with stable shRNA knockdown of p53 or those transfected shRNA control vector were treated with Cpd. A, Cpd. B, Cpd. No. 14, Cpd. No. 21, Cpd. No. 15, and Cpd. No. 22 for 4 days, with a cell concentration of ˜15,000/well. Cell growth inhibition was determined by WST assay. See Table 7 (p53) and Table 8 (control). Significant increases in IC50 of the Compounds of the Disclosure in the p53 knockdown RS4; 11 cells were observed compared with that in the sh control cells. […] The p53 knockdown efficiency was determined by western blot for p53 protein levels with or without treatment of Cpd. A (1 μM) for 2 hours.

RS4; 11 cells = assay: Cell growth inhibition by WST assay with Cpd. C co-treatment (CRBN competition); parameters: LogIC50: unit not given here; conditions: for HillSlope / pIC50 / LogIC50: 4 days; for shift of the dose response curves: co-treatment of Cpd. C (10, 20, or 30 μM)
Experimental: RS4; 11 cells were pre-incubated with different concentrations of Cpd. C to compete for the binding of phthalimide to CRBN, or DMSO, for 2 hours before adding Cpd. A, Cpd. No. 14, Cpd. No. 15, and Cpd. No. 22. The cells were then co-treated with 10, 20, or 30 μM Cpd. C and increasing concentrations of Cpd. A, Cpd. No. 14, Cpd. No. 15, and Cpd. No. 22 for 4 days, with a starting cell concentration of ˜15,000/well. Cell growth inhibition was determined by the WST assay. […] No. 14, Cpd. No. 15, and Cpd. No. 22 with co-treatment of Cpd. C. The structure of Cpd.

[3] = tested on: RS4; 11 cells transfected shRNA control vector; assay: Cell growth inhibition by WST assay, shRNA control cells; parameters: LogIC50: unit not given here; conditions: RS4;11 sh Control, 4 days; for pIC50: Homo sapiens, 96 h
Experimental: as §2

MDM2 [4] = molecular target: T1, MDM2 (Homo sapiens, UniProt Q00987); assay: MDM2 degradation and p53 activation after pre-incubation with Cpd. C, Western blot; parameters: endogenous in cells; host or cells: RS4;11; conditions: for MDM2 degradation, dependence on cereblon (CRBN): FIG. 7; for MDM2 degradation, competition by Cpd. C / p53 activation, competition by Cpd. C: RS4, 11 cells, pre-incubated with 30 μM Cpd. C for 2 hours
Experimental: RS4; 11 cells were pre-incubated with 30 μM Cpd. C to compete for the binding of phthalimide to CRBN, or DMSO, for 2 hours before adding Cpd. A, Cpd. No. 14, Cpd. No. 15, and Cpd. No. 22. In the Western blot RS4; 11 cells were then co-treated with the indicated compounds at the indicated concentrations after pre-incubation. […] No. 14, Cpd. No. 15, and Cpd.

MDM2 [5] = molecular target: T1, MDM2; assay: MDM2 degradation with or without proteasome inhibitor MG-132, western blotting; parameters: endogenous in cells; host or cells: RS4;11; conditions: FIG. 6
Experimental: RS4; 11 cells were pre-incubated with the proteasome inhibitor MG-132 (20 μM) or without any pre-incubation for 2 hours. Next, the cells were treated with Cpd. A (0.3 μM), Cpd. No. 14 (0.03 μM), Cpd. No. 15 (0.01 μM), and Cpd. No. 22 (0.01 μM) for 2 hours, then harvested and lysed. The cell lysates were subject to western blotting analysis.

MDM2 [6] = molecular target: T1, MDM2; assay: MDM2 degradation and p53 activation, western blotting of cell lysates; parameters: endogenous in cells
Experimental: MV-4-11 cells were treated with Cpd. A, Cpd. B, Cpd. No. 15, and Cpd. No. 22 for 2 hours, then harvested and lysed. The cell lysates were subjected to western blotting analysis. […] No. 15 and Cpd. No. 22 as compared to Cpd. A, indicating MDM2 degradation.

MDM2 [7] = molecular target: T1, MDM2; assay: as above; parameters: endogenous in cells; host or cells: RS4;11; conditions: RS4
Experimental: RS4; 11 cells were treated with Cpd. A, Cpd. B, Cpd. No. 15, and Cpd. No. 22 for 2 hours, then harvested and lysed. The cell lysates were subjected to western blotting analysis. […] No. 15 and Cpd. No. 22 as compared to Cpd. A, indicating MDM2 degradation. The structure of Cpd.

[8] = Homo sapiens, 96 h, without Cpd. C

T1 sequence (Q00987 whole entry): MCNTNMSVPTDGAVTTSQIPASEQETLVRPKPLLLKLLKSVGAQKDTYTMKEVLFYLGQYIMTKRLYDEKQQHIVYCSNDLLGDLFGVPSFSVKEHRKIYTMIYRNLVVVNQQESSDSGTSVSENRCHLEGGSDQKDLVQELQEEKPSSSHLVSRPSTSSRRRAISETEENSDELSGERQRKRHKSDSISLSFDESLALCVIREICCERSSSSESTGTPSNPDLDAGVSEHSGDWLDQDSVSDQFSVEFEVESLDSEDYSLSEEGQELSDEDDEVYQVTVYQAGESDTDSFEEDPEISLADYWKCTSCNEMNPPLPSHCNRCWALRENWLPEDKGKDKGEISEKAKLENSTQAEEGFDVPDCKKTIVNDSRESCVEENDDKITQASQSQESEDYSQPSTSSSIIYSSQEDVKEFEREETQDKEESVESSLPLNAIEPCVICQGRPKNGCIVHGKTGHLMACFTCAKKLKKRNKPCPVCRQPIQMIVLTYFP

pIC50 (MV4-11 cell line) | pIC50 (RS4; 11 cell line) | pIC50 [2] | pIC50 (RS4; 11 cells; + 10 uM Cpd. C) | pIC50 (RS4; 11 cells; + 20 uM Cpd. C) | pIC50 (RS4; 11 cells; + 30 uM Cpd. C) | pIC50 (RS4; 11 cells; [8]) | pIC50 [3] | SMILES | HiliSlope [2] | LogIC50 [2] | HillSlope (RS4; 11 cells; + 10 uM Cpd. C) | LogIC50 (RS4; 11 cells; + 10 uM Cpd. C) | HillSlope (RS4; 11 cells; + 20 uM Cpd. C) | LogIC50 (RS4; 11 cells; + 20 uM Cpd. C) | HillSlope (RS4; 11 cells; + 30 uM Cpd. C) | LogIC50 (RS4; 11 cells; + 30 uM Cpd. C) | HillSlope (RS4; 11 cells; without Cpd. C) | LogIC50 (RS4; 11 cells; without Cpd. C) | HiliSlope [3] | LogIC50 [3] | also measured
7.00 | 7.07 | 5.01 | 7.32 | 7.41 | 7.44 | 7.03 | 7.01 | O=C(O)c1ccc(NC(=O)[C@@H]2NC3(CCCCC3)[C@@]3(C(=O)Nc4cc(Cl)ccc43)[C@H]2c2cccc(Cl)c2F)cc1 [Cpd. A, reference compound] | −0.4240 | 0.9926 | −1.569 | −1.317 | −1.406 | −1.409 | −1.411 | −1.438 | −1.496 | −1.030 | −1.155 | −1.011 | activation of p53 downstream target genes (mRNA levels of p21, PUMA, BAX) ([1]; 0.3 μM): Significant activation
8.12 | 8.07 | 6.30 | 7.24 | 7.09 | 7.11 | 8.15 | 8.01 | O=C1CCC(N2C(=O)c3cccc(NCCOCCOCCNC(=O)c4ccc(NC(=O)[C@@H]5NC6(CCCCC6)[C@@]6(C(=O)Nc7cc(Cl)ccc76)[C@H]5c5cccc(Cl)c5F)cc4)c3C2=O)C(=O)N1 (stereo partly drawn) [Cpd. No. 14, (3′R,4'S,5′R)-6″-chloro-4′-(3-chloro-2-fluorophenyl)-N-(4-((2-(2-(2-((2-(2,6-dioxopiperidin-3-yl)-1,3-dioxoisoindolin-4-yl)amino)ethoxy)ethoxy)ethyl)carbamoyl)phenyl)-2″-oxodispiro[cyclohexane-1,2′-pyrrolidine-3′,3″-indoline]-5′-carboxamide] | −0.4731 | −0.3000 | −1.705 | −1.244 | −1.667 | −1.091 | −1.600 | −1.111 | −1.996 | −2.147 | −1.475 | −2.014 | MDM2 degradation, dependence on cereblon (CRBN) (MDM2 [4]): cereblon (CRBN)-dependent; MDM2 degradation, competition by Cpd. C (MDM2 [4]): significantly competed by Cpd. C; p53 activation, competition by Cpd. C (MDM2 [4]): significantly competed by Cpd. C; MDM2 degradation, dependence on proteasome (MDM2 [5]): proteasome-dependent; shift of the dose response curves (RS4; 11 cells): Significant rightward shifts
8.70 | 8.36 | 6.96 | 7.36 | 7.17 | 7.21 | 8.31 | 8.13 | O=C1CCC(N2C(=O)c3cccc(NCCOCCOCCOCCNC(=O)c4ccc(NC(=O)[C@@H]5NC6(CCCCC6)[C@@]6(C(=O)Nc7cc(Cl)ccc76)[C@H]5c5cccc(Cl)c5F)cc4)c3C2=O)C(=O)N1 (stereo partly drawn) [Cpd. No. 15, (3′R,4'S,5′R)-6″-chloro-4′-(3-chloro-2-fluorophenyl)-N-(4-((2-(2-(2-(2-((2-(2,6-dioxopiperidin-3-yl)-1,3-dioxoisoindolin-4-yl)amino)ethoxy)ethoxy)ethoxy)ethyl)carbamoyl)phenyl)-2″-oxodispiro[cyclohexane-1,2′-pyrrolidine-3′,3″-indoline]-5′-carboxamide] | −0.8905 | −0.9565 | −1.654 | −1.356 | −1.540 | −1.167 | −1.416 | −1.205 | −1.839 | −2.312 | −1.626 | −2.127 | MDM2 degradation, dependence on cereblon (CRBN) (MDM2 [4]): cereblon (CRBN)-dependent; MDM2 degradation, competition by Cpd. C (MDM2 [4]): significantly competed by Cpd. C; p53 activation, competition by Cpd. C (MDM2 [4]): significantly competed by Cpd. C; p53 activation (MDM2 [6]; MV-4-11 cell line): p53 activation; protein level of MDM2 (MDM2 degradation) (MDM2 [6]; MV-4-11 cells, 2 hours, compared to Cpd. A): induce MDM2 degradation; also recorded: significantly decreased; mRNA levels of p21 ([1]; FIG. 3, 10 nM): activate; mRNA levels of PUMA ([1]; FIG. 4, 10 nM): activate; mRNA levels of BAX ([1]; FIG. 5, 10 nM): activate; activation of p53 downstream target genes (mRNA levels of p21, PUMA, BAX) ([1]; 10 nM): Significant activation; MDM2 degradation, dependence on proteasome (MDM2 [5]): proteasome-dependent; shift of the dose response curves (RS4; 11 cells): Significant rightward shifts; p53 activation (MDM2 [7]; 11 cell line): p53 activation; protein level of MDM2 (MDM2 degradation) (MDM2 [7]; 11 cells, 2 hours, compared to Cpd. A): induce MDM2 degradation; also recorded: significantly decreased
